The values that follow come from PubChem BioAssay (NCI).

Experiment in all cases: inhibition of tumour cell growth, NCI panel, 48 h
Assay [1] deals with TK-10 renal.
The subject of assay [2] is HS 578T breast.
Assay [3] concerns SK-OV-3 ovarian.
Assay [4] relates to RPMI-8226 leukemia.
Assay [5] relates to 786-0 renal.
For assay [6], the system named is A549 NSCLC.
For assay [7], the system named is CAKI-1 renal.
The test system of assay [8] is MDA-MB-231 breast.

Values joined by “and” are separate entries in the source; they are usually repeats but may differ in a detail not shown here. Equal entries are not always repeated.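 Protocol summary: plate cells (96-well), add compound at 5 concentrations, incubate 48 h, interpolate endpoints linearly. Here, GI50 denotes the concentration required for 50% inhibition of growth. TGI is the concentration that stops growth completely.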

On to `CC12OC(C(=O)C13CCC3)C1C(=O)c3ccccc3C(=O)C12` (configuration not stated), for which the GI50 in assay [1] was 92.5 µM; in assay [2], over 100000 nM; in assay [3] it was over 100 µM; in assay [4], 26.5 µM; in assay [5], over 100 µM; in assay [6], over 100 µM. The GI50 in assay [7] is 32.7 µM; in assay [8], 10.4 µM. The TGI in assay [1], in assay [2], in assay [3], in assay [4], in assay [5] and in assay [6] was over 100 µM throughout. Further, the TGI in assay [7] and in assay [8] was over 100 µM in each case.

Take `O=C(Nc1cc(S(=O)(=O)c2ccc(Cl)cc2)ccc1Cl)c1cc(I)cc(I)c1O`: the GI50 in assay [1] was 18.1 µM; in assay [2], 17800 nM; in assay [3], 17.2 µM; in assay [4] it was 0.0515 µM; in assay [5], 15.6 µM; in assay [6], 19.3 µM. For the same compound, the GI50 in assay [7] is 20.3 µM; in assay [8], 17.4 µM. Besides, the TGI in assay [1] is 34.2 µM; in assay [2], 47.6 µM; in assay [3], 31.5 µM; in assay [4], 0.833 µM; in assay [5], 30 µM; in assay [6] it was 38.2 µM. The TGI is 38.2 µM in assay [7] and 36.5 µM in assay [8].

`COc1ccc(/C=C/C(=O)C(C)(C)Br)cc1`: the TGI in assay [1] was 29.7 µM; in assay [2], 37.8 µM; in assay [3] it was 63.1 µM; in assay [4], 14.6 µM; in assay [5], 23.7 µM; in assay [6] it was 63.9 µM. Besides, the TGI was 35.7 µM in assay [7] and 63.1 µM in assay [8].

Take `Cn1cnc([N+](=O)[O-])c1Sc1nc(N)nc2nc[nH]c12`: the GI50 in assay [1] was 5.75 µM; in assay [2], 14500 nM; in assay [3], 0.727 µM; in assay [4] it was 3.52 µM; in assay [5] it was 2.04 µM; in assay [6] it was 13.1 µM. In addition, the GI50 in assay [7] is 2.72 µM; in assay [8] it was 4.88 µM. Besides, the TGI is over 100 µM in assay [1]; over 100 µM in assay [2]; over 100 µM in assay [3]; over 94 µM in assay [4]; over 100 µM in assay [5]; over 100 µM in assay [6]. Moreover, the TGI in assay [7] and in assay [8] was over 100 µM each time.

Take `CCCn1cnc2c(SCc3ccccc3)nc(N)nc21`: the GI50 in assay [1] is 80.5 µM; in assay [2], over 100000 nM; in assay [3], over 100 µM; in assay [4] it was 41.6 µM; in assay [5] it was over 100 µM; in assay [6] it was 77.8 µM. The GI50 was 89.3 µM in assay [7] and over 100 µM in assay [8]. In addition, the TGI in assay [1], in assay [2], in assay [3], in assay [4], in assay [5] and in assay [6] was over 100 µM throughout. Also, the TGI in assay [7] and in assay [8] was over 100 µM each time.

With `Cc1cc(=O)oc2cc(OCCn3c(C)nn(-c4ccc(Cl)cc4)c3=O)ccc12`, the GI50 was 13.4 µM in assay [1]; 2820 nM in assay [2]; 3.36 µM in assay [3]; 11 µM in assay [4]; 5.7 µM in assay [5]; 6.07 µM in assay [6]. The GI50 in assay [7] is over 100 µM; in assay [8] it was 4.53 µM. The TGI was 88.4 µM in assay [1]; over 100 µM in assay [2]; 48.8 µM in assay [3]; over 100 µM in assay [4]; over 100 µM in assay [5]; over 100 µM in assay [6]. For the same compound, the TGI in assay [7] and in assay [8] was over 100 µM throughout.

Consider `C[C@@H]1C/C=C\C(=O)O[C@H](/C=C/C#C/C=C/C(C)(C)[C@@H](O)c2cccc(O)c2Br)[C@@H](C)/C=C/[C@H](C)C[C@H](OC(N)=O)C1`, for which the GI50 in assay [1] is 4.28 µM; in assay [2], 400 nM; in assay [3], 13.3 µM; in assay [4], 0.0411 µM; in assay [5], 0.0361 µM; in assay [6] it was 0.0332 µM. The values for the GI50 in assay [7] and in assay [8] were 0.0462 µM and 0.0139 µM, respectively. Besides, the TGI in assay [1] was 21.6 µM; in assay [2] it was 32.3 µM; in assay [3], 27.3 µM; in assay [4], 6.45 µM; in assay [5], 15.2 µM; in assay [6], 19.5 µM. Moreover, the TGI in assay [7] turned out to be 13.8 µM; in assay [8], 2.12 µM.

For the compound `CC(=O)Oc1ccc(C2(c3ccc(OC(C)=O)cc3)C(=O)Nc3ccccc32)cc1`, the GI50 in assay [1] was 3.14 µM and 17.6 µM; in assay [2], 65.1 nM and 153 nM; in assay [3], 31.8 µM and 58.9 µM; in assay [4], 20.5 µM and 17.6 µM; in assay [5], 42.6 µM and 46.6 µM; in assay [6] it was 33.8 µM and 42.9 µM. Further, the GI50 in assay [7] is 31.4 µM and 31.8 µM; in assay [8], 25.6 µM and 37.8 µM. Also, the TGI in assay [1] is over 100 µM; in assay [2], 0.484 µM and 0.7 µM; in assay [3], over 100 µM; in assay [4] it was over 93.2 µM; in assay [5], over 100 µM; in assay [6], over 100 µM. Moreover, the TGI in assay [7] and in assay [8] was over 100 µM throughout.

Consider `CCC(=O)c1cc([N+](=O)[O-])c(Br)s1`, for which the GI50 in assay [1] is 13.8 µM; in assay [2], 19500 nM; in assay [3] it was 19.4 µM; in assay [4], 20.2 µM; in assay [5], 12.6 µM; in assay [6], 5.27 µM. The GI50 in assay [7] was 1.66 µM; in assay [8], 6.79 µM. In addition, the TGI in assay [1] came to 28.1 µM; in assay [2] it was 85 µM; in assay [3] it was 33.9 µM; in assay [4] it was 89 µM; in assay [5], 26.6 µM; in assay [6] it was 19.6 µM. The TGI is 3.41 µM in assay [7] and 21.3 µM in assay [8].

Regarding `COc1ccc(-c2nc3c(c(=O)n2C(C)=O)C(c2ccc(Cl)cc2)c2sc4c(Cl)cccc4c2O3)cc1` (configuration not stated), the GI50 in assay [1] was 0.846 µM; in assay [2], 521 nM; in assay [3] it was 0.349 µM; in assay [4] it was 0.529 µM; in assay [5] it was 0.43 µM; in assay [6] it was 0.625 µM. Besides, the GI50 in assay [7] is 0.49 µM; in assay [8], 0.589 µM. Also, the TGI was 2.67 µM in assay [1]; 4.44 µM in assay [2]; 2.09 µM in assay [3]; 5.1 µM in assay [4]; 1.63 µM in assay [5]; 2.2 µM in assay [6]. In addition, the TGI was determined as 4.16 µM in assay [7] and 2.43 µM in assay [8].
